Reference: US20090291442A1, “HSPA1A AS A MARKER FOR SENSITIVITY TO KSP INHIBITORS” (SMITHKLINE BEECHAM CORPORATION, priority 2006, published 2009)
Structures can show the parent of a compound that is named as a salt.

Columns and labels:
[1] = system: MV522 (lung cancer); test: Cell line sensitivity to KSP inhibitor (FACS analysis); format: cell-based; settings: MV522 cells
Description: (§1) Baseline expression of HSPA1a was validated in 4 cell lines: MX1 (breast cancer) and MV522 (lung cancer) resistant to Ispinesib mesylate and Colo201 (colon cancer) and Colo205 (colon cancer) sensitive to Ispinesib mesylate inhibition. Like the tumors, HSPA1a expression differentiated the resistant cell lines from the sensitive cell lines.
(§2) A more extensive list of preclinical cell lines compared with those presented in Example 2, including cell lines from both solid and liquid tumors, was analyzed. Again, these cell lines were previously determined to be either resistant or sensitive to Ispinesib mesylate using FACS analysis. […] Of the 22 cell lines analyzed, HSPA1a expression levels were correctly able to classify 19 cell lines as resistant or sensitive to the KSP inhibitor. The HSPA1a marker misclassified 2 cell lines Daudi and HCT116 as sensitive (due to low baseline expression in these cells) and HeLaS3 cell line as resistant (due to high baseline expression of HSPA1a in these cells).

[2] = system: MX1 (breast cancer); test: as above; format: cell-based; settings: MX1 cells
Description: as §1, §2

[3] = system: Colo205 (colon cancer); test: as above; format: cell-based; settings: Colo205 cells
Description: as §1, §2

[4] = system: Colo201 (colon cancer); test: as above; format: cell-based; settings: Colo201 cells
Description: as §1, §2

[5] = system: Wilm's tumor WT8 xenograft; test: Outcome of human Wilm's tumor xenograft WT8 to KSP inhibitor; format: in vivo; settings: Wilm's tumor xenograft WT8, known outcome
Experimental: (§3) Affymetrix® gene expression profiling was conducted to identify baseline expression patterns associated with sensitivity to the KSP inhibitor in human Wilm's tumor xenograft models. Total RNA from three distinct Wilm's tumors with known outcomes to Ispinesib mesylate (2-3 replicates) inhibition was labeled using a 5 μg protocol and hybridized to the HG-U133A Affymetrix® array. Baseline gene expression differences between tumors resistant (WT7 and WT8) and sensitive (WT10) to Ispinesib mesylate were compared. […] Validation by QPCR of the same tumors confirmed this expression pattern.

[6] = system: Wilm's tumor WT10 xenograft; test: Outcome of human Wilm's tumor xenograft WT10 to KSP inhibitor; format: in vivo; settings: Wilm's tumor xenograft WT10, known outcome
Experimental: as §3

[7] = system: Wilm's tumor WT7 xenograft; test: Outcome of human Wilm's tumor xenograft WT7 to KSP inhibitor; format: in vivo; settings: Wilm's tumor xenograft WT7, known outcome
Experimental: as §3

[8] = target: T1, KSP (Homo sapiens, UniProt P52732); settings: literature statement; cited from earlier work
T1 sequence (P52732 1-1056): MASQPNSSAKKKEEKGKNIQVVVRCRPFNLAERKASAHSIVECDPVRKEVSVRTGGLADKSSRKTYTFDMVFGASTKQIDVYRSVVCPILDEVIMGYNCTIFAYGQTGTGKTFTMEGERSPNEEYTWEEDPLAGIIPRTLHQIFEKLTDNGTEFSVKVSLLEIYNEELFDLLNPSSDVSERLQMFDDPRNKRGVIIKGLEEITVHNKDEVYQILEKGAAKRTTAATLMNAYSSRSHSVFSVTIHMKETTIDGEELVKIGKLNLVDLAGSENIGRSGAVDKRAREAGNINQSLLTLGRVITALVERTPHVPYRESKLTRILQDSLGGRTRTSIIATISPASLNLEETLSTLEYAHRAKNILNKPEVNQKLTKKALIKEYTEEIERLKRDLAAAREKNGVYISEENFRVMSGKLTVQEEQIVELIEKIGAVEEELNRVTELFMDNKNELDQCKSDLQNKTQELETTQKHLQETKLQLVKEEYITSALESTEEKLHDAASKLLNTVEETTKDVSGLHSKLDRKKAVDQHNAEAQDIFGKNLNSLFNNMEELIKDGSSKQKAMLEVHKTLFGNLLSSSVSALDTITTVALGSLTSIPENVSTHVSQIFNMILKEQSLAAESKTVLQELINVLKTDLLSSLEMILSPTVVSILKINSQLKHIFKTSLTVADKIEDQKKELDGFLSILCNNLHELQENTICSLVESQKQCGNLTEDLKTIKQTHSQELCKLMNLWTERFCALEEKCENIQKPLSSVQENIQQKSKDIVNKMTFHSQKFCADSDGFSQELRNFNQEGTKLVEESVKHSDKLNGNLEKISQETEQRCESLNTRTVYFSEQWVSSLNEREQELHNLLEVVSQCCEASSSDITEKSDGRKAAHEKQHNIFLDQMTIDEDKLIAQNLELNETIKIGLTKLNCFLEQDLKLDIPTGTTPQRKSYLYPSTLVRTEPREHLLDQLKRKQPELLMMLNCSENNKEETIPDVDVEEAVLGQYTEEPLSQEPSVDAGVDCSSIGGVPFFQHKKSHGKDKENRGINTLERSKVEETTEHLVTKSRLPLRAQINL

With `Cc1ccc(C(=O)N(CCCN)[C@@H](c2nc3cc(Cl)ccc3c(=O)n2Cc2ccccc2)C(C)C)cc1` [Ispinesib mesylate] the “cell line resistant or sensitive to the compound” value (“cell line resistant or sensitive” below) [1] was “resistant”, the “cell line resistant or sensitive” value [2] was “resistant” and the “cell line resistant or sensitive” value [3] was “sensitive”. The “cell line resistant or sensitive” value [4] was “sensitive”, the “tumor resistant or sensitive to the compound” value (shortened to “tumor resistant or sensitive”) [5] was “resistant” and the “tumor resistant or sensitive” value [6] was “sensitive”. The “tumor resistant or sensitive” value [7] was “resistant” and the “inhibition of KSP (in words)” value [8] was “potent and selective inhibitor of KSP”.
